The subject of assay [1] is GIPR expression in H295R cells. The assay can be described thus: GIPR messenger RNA by RT-qPCR in H295R cells after KDM1A inhibition. The format is cell-based, human. The note with it: for GIPR messenger RNA level (RT-qPCR): GSK-LSD1 at 0.5 μM. Here is the method: (§1) H295R cells were cultivated in DMEM/Ham's F-12 Medium supplemented with 2 mM Glutamine, 100 IU/mL Penicillin, 100 μg/mL Streptomycin, 10% Fetal Bovine Serum, 20 mM HEPES, and a mixture of Insulin (1 μM), Transferrin (5.8 mg/ml) and Selenium (60 nM). Human pancreatic β-cells EndoC-βH1 have also been used. They are cultivated as described in Ravassard P. et al^38.
(§2) Cells were incubated up to 10 days with 0.5 μM GSK-LSD1 an irreversible inhibitor of KDM1A (Sigma-Aldrich).
(§3) Transfection of siRNAs protocol was performed as follow. Briefly, H295R cells were cultivated in serum free Optimem medium (Life Technologies) for 2 hours, then incubated for 6 h with Lipofectamine RNAiMAX (2 μL/well) and 100 nM siRNA targeting KDM1A or Scrambled siRNA (Horizon). Two iterative transfections were performed at 1 and 3 days after seeding. Expression level of the studied gene was determined using reverse transcription quantitative polymerase chain reaction (RT-qPCR).
(§4) RNA extraction from cell cultures and tissue protocol and RT-qPCR protocol were as follows: DNA was extracted from frozen adrenal samples using the phenol-chloroform-isoamyl alcohol extraction method. DNA was extracted from Formalin-Fixed Paraffin-Embedded (FFPE) sample using NucleoSpin DNA FFPE XS kit (Macherey-Nagel) or from blood leucocytes using either an automated QIAsymphony platform (Qiagen) or the Flexigene DNA Kit (Qiagen). Total RNA was extracted from tissues or cells using TRIzol reagent according to the manufacturer's instructions. After DNAse I treatment (New England Biolabs), 1 μg of total RNA was reverse transcribed using the High-Capacity cDNA reverse transcription kit (Life Technologies). Samples were analyzed by RT-qPCR using the Power SYBR® Green PCR Master Mix (Life Technologies) or the TaqMan Gene Expression Assays (Life Technologies, ref. 4331182 and 4448489) and were run on a QS6 Real-Time PCR System (Life Technologies). […] Relative expression of the gene of interest was expressed as a ratio of attomoles to attomoles of housekeeper genes.
(In general: Real-time PCR tracks product formation cycle by cycle.)

Assay [2] concerns GIPR protein in H295R cells. Put plainly: GIPR protein by immunofluorescence and automated High-throughput Microscopy in H295R cells. In kind it is cell-based, human. Here is the method:
as §1, §2, §3
Cells were grown on a 24 well plates containing glass coverslips (14-mm diameter). After 24 h, siRNA targeting KDM1A or Scramble siRNA (100 nM) were transfected as described above. Briefly, cells were fixed with 4% paraformaldehyde and permeabilized 10 min with a 0.2% solution of Triton X100 diluted in PBS. […]
Sequential images (20×-0.40 NA lens) were acquired for each channel with the automated ArrayScan VTI imaging and analyzing platform (Thermo Fisher Scientific). The TargetActivation Algorithm (v.4) was used to detect and quantify the GIPR fluorescence as following. DAPI fluorescence was used to find the focus and was sequentially acquired with GIPR fluorescence in order to give separate image files. […] In order to quantify the amount of GIPR fluorescence (channel 2) present in the cytoplasm of the primary selected object, this nuclear mask was dilated to cover the cytoplasmic region. […] The cytoplasmic mask was lastly used to detect, select and quantify the average fluorescence of GIPR in the final population of transfected cells (n>40,000). […]

For assay [3], the system named is GIPR messenger RNA levels in human pancreatic β-cells EndoC-βH1. The assay can be described thus: GIPR transcripts by RT-qPCR in pancreatic β-cells EndoC-βH1 after KDM1A inhibition. In kind it is cell-based. As for the experimental part:
as §1, §2, §3, §4

The results in this text go back to US20240360510A1, “DETECTION OF KDM1A LOSS OF ACTIVITY FOR DIAGNOSING ENDOCRINE DISORDERS” (UNIVERSITE PARIS-SACLAY, priority 2021, published 2024).

Each structure is given as a SMILES string.

Turning to `c1ccc([C@@H]2C[C@H]2NC2CCNCC2)cc1` [GSK-LSD1], the “GIPR messenger RNA level (RT-qPCR)” value is “significant increase of GIPR expression” in assay [1] (seven days, p=0.0082) and “significant increase of GIPR expression” in assay [1] (three days, p=0.0069). Besides, the “GIPR expression, quantified by RT-qPCR” value in assay [1] (treatment with GSK-LSD1, time not given) was “increased GIPR expression”. Besides, the “GIPR protein expression in the cytoplasm (automated High-throughput Microscopy)” value in assay [2] (H295R cells transfected (KDM1A siRNA) and treated (GSK-LSD1), seven days, p<0.0001, analyzed cells>40 000) was “increase in protein expression”. The “GIPR expression observed by immunofluorescence” value in assay [2] (H295R cells, KDM1A siRNA transfection and concomitant pharmacological inhibition (GSK-LSD1) for seven days) is on record as “significant GIPR expression”. In assay [2] (H295R cells, compared to untreated cells, analyzed cells>40 000, p<0.001), the “expression of GIPR protein (automated High-throughput Microscopy)” value was “significant increased expression of GIPR protein”. Also, the “GIPR transcripts (RT-qPCR)” value in assay [3] (KDM1A siRNA and GSK-LSD1, 3 days of treatment, p=0.0113) is listed as “significant increase in GIPR transcripts”; in assay [3] (KDM1A siRNA and GSK-LSD1, 7 days of treatment, p=0.0027), “significant increase in GIPR transcripts”. For the same compound, the “GIPR expression (GIPR transcripts, RT-qPCR)” value in assay [3] (KDM1A silencing and concomitant GSK-LSD1, time not given) is recorded as “increased GIPR expression”.
